As usually defined, the EC50 is the concentration giving half of the maximal effect. What is called inhibition is the relative decrease from the control value, in per cent. The term IC50 denotes the concentration that gives 50% inhibition.

“And” between values parts separate entries of the source, which are not always exact repeats. Equal entries are not always repeated.

Experimental findings from paper PMC3685217, “Activation of IP3 receptors requires an endogenous 1-8-14 calmodulin-binding motif” (Biochemical Journal, 2012) are described below.

In one test the target is T1, full-length IP3R1 (Rattus norvegicus, UniProt P29994).
T1 construct: membranes from rat cerebellum (full-length IP3R, FL); from tissue; host or cells: rat cerebellum membranes
Description: [3H]IP3 binding to membranes from rat cerebellum. As to conditions: 3 mM peptide, [3H]IP3 1.5 nM. The protocol: (§1) Equilibrium-competition binding assays were performed at 4°C for 5 min in CLM (500 μl) with a free Ca^2+ concentration of 220 nM and containing [^3H]IP3 (0.75–1.5 nM), bacterial lysate (10 μg of protein for IBC and 100 μg of protein for NT) or cerebellar membranes (50 μg of protein) and competing ligands. Non-specific binding was defined by addition of 10 μM IP3. Bound and free [^3H]IP3 were separated by centrifugation at 20000 g for 5 min, after addition of poly(ethylene glycol) (15% final concentration) and γ-globulin (0.75 mg) for soluble proteins. Results were analysed by fitting to a Hill equation (using GraphPad Prism) from which the IC50 (half-maximal inhibitory concentration) and thereby the Kd (equilibrium dissociation constant) were calculated.
Figure 4 1-8-14 peptide directly stimulates IP3 binding to the NT of IP3R (A) Specific equilibrium binding of [^3H]IP3 (1.5 nM) to membranes from rat cerebellum (full-length IP3R, FL) or to isolated NT or IBC, alone or in the presence of 3 mM of the indicated peptide. *P<0.05 and **P<0.01 relative to control; comparisons were performed on the raw data. (B) Concentration-dependent effects of 1-8-14 peptide on specific [^3H]IP3 binding to NT in CLM with 220 nM free Ca^2+ concentration, plotted as the increase in specific [^3H]IP3 binding as a percentage of that evoked by the maximal concentration of peptide. […]

In test [1] the target is T2, IBC (residues 224–604) of rat IP3R1 (Rattus norvegicus, UniProt P29994, DEL318-332).
T2 construct: IBC (residues 224–604) of rat IP3R1 were amplified by PCR; His6 (N, cleaved yes); made in house; host or cells: Escherichia coli BL21(DE3)
T2 sequence (P29994 224-589 isoform P29994-2 limits assumed, stated change not applied): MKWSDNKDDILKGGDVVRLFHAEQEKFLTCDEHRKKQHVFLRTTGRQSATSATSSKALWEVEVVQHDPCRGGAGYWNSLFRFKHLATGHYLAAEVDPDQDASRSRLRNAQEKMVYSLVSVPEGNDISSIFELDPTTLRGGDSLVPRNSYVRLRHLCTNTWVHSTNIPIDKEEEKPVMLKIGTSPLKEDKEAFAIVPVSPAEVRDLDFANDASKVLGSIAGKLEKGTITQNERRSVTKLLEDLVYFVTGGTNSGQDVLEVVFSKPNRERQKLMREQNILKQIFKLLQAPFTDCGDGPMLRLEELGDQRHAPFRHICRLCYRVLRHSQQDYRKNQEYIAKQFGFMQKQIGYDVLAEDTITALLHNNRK
Description: [3H]IP3 equilibrium-competition binding to IBC.
Excerpt: (§2) The NT (residues 1–604) and IBC (residues 224–604) of rat IP3R1 were amplified by PCR from the full-length receptor clone lacking the SI splice region (GenBank® accession number GQ233032.1) as described previously. The fragments were ligated into pTrcHis A (Invitrogen) to allow expression of N-terminally His6-tagged proteins. Mutagenesis of the 1-8-14 motif within the NT used the QuikChange® II XL site-directed mutagenesis kit (Stratagene) for single mutants (F53E, L60E, Y66E and K52E) and the QuikChange® multi-site-directed mutagenesis kit for the double mutant (F53E and Y66E). The primers used are listed in Supplementary Table S2 (at http://www.BiochemJ.org/bj/449/bj4490039add.htm). The same primers and conditions were used for mutagenesis of full-length IP3R using IP3R1 in the pENTR 1A vector. Full-length constructs were subcloned into pcDNA3.2/V5-DEST for expression in DT40 cells. The complete sequence of every mutant construct was verified by sequencing.
(§3) The pTrcHis constructs were used for expression of N-terminally His6-tagged proteins in Escherichia coli strain BL21(DE3) cells. Before use for [^3H]IP3 binding, proteins were cleaved from the His6 tags using biotinylated thrombin (Novagen) at the engineered thrombin-cleavage site. Complete cleavage was verified by Western blotting using an anti-His6 antibody. The proteins were used for [^3H]IP3 binding without further purification.
as §1

Test [2] deals with T3, NT (residues 1–604) of rat IP3R1 (Rattus norvegicus, UniProt P29994, DEL318-332).
T3 construct: The NT (residues 1–604) and IBC (residues 224–604) of rat IP3R1; His6 (N, cleaved yes); made in house; host or cells: Escherichia coli BL21(DE3)
T3 sequence (P29994 1-589 isoform P29994-2 limits assumed, stated change not applied): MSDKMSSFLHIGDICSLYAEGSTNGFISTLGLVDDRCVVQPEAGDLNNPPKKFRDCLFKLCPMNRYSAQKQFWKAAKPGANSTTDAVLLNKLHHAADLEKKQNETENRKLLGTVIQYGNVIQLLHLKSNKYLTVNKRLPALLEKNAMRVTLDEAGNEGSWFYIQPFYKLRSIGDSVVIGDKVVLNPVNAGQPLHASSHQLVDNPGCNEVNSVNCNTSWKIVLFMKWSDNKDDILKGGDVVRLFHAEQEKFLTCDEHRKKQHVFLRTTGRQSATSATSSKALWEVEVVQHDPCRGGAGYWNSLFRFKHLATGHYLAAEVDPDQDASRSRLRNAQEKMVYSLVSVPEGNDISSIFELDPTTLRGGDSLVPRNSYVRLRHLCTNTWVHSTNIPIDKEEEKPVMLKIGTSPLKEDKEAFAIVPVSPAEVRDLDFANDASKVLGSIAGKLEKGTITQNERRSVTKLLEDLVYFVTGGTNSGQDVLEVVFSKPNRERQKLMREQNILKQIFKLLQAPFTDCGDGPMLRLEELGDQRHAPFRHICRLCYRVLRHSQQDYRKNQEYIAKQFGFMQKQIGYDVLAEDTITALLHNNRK
Description: [3H]IP3 equilibrium-competition binding to NT.
Excerpt: as §2, §3, §1

The target of test [3] is T4, rat IP3R1 (Rattus norvegicus, UniProt P29994).
T4 construct: expressed in transfected cells; host or cells: DT40 cells (chicken B cells, all endogenous IP3R genes disrupted) stably expressing rat IP3R1
Description: IP3-evoked Ca2+ release from the intracellular stores of permeabilized DT40-IP3R1 cells. In kind it is cell-based. The protocol:
The free Ca^2+ concentration of the intracellular stores of permeabilized cells was measured using a low-affinity Ca^2+ indicator trapped within the endoplasmic reticulum as reported previously. Briefly, DT40 cells (4×10^7 cells/ml) were suspended in HBS (Hepes-buffered saline: 135 mM NaCl, 5.9 mM KCl, 11.6 mM Hepes, 1.5 mM CaCl2, 11.5 mM glucose and 1.2 mM MgCl2, pH 7.3) containing 1 mg/ml BSA, 0.4 mg/ml Pluronic F127 and 20 μM mag-fluo-4/AM (Invitrogen). After 1 h at 20°C in the dark with gentle shaking, cells were centrifuged at 650 g for 2 min and resuspended to 10^7 cells/ml in Ca^2+-free CLM (cytosol-like medium) (20 mM NaCl, 140 mM KCl, 1 mM EGTA, 20 mM Pipes and 2 mM MgCl2, pH 7.0) containing 20 μg/ml saponin. After incubation at 37°C with gentle shaking for 4 min, permeabilized cells were centrifuged at 650 g for 2 min and resuspended in Mg^2+-free CLM, supplemented with CaCl2 to give a final free Ca^2+ concentration of 220 nM. The free Ca^2+ concentration of CLM was calculated using the MaxChelator program (http://maxchelator.stanford.edu) and then measured using fluo-3 or fura-2. Cells were then washed, resuspended in Mg^2+-free CLM containing 10 μM FCCP (carbonyl cyanide p-trifluoromethoxyphenylhydrazone) to inhibit mitochondria, and distributed into a 96-well plate (10^6 cells in 50 μl of CLM/well). After centrifugation, fluorescence from the luminal indicator was recorded using a FlexStation II platereader (Molecular Devices) equipped to allow automated additions. In all experiments, the intracellular stores were allowed to load to steady-state with Ca^2+ after addition of MgATP. IP3 was then added with thapsigargin (1 μM, to inhibit Ca^2+ reuptake). The Ca^2+ release evoked by IP3 is expressed as a fraction of the ATP-dependent Ca^2+ uptake.

Test [4] addresses T4, rat IP3R1. Description: Patch-clamp recording from patches excised from the outer nuclear envelope of DT40 cells. In kind it is biochemical. As to conditions: IP3 10 μM. The protocol:
Currents were recorded from patches excised from the outer nuclear envelope of DT40 cells expressing recombinant rat IP3R1 using symmetrical caesium methanesulfonate (140 mM) as the charge-carrier. The composition of recording solutions and methods of analysis were otherwise as described previously.

The target of test [5] is T5, NT of rat IP3R1 with L60E mutation (Rattus norvegicus, UniProt P29994, DEL318-332/L60E).
T5 construct: The NT (residues 1–604) and IBC (residues 224–604) of rat IP3R1; His6 (N, cleaved yes); made in house; host or cells: Escherichia coli BL21(DE3)
T5 sequence (P29994 1-589 isoform P29994-2 L60E limits assumed): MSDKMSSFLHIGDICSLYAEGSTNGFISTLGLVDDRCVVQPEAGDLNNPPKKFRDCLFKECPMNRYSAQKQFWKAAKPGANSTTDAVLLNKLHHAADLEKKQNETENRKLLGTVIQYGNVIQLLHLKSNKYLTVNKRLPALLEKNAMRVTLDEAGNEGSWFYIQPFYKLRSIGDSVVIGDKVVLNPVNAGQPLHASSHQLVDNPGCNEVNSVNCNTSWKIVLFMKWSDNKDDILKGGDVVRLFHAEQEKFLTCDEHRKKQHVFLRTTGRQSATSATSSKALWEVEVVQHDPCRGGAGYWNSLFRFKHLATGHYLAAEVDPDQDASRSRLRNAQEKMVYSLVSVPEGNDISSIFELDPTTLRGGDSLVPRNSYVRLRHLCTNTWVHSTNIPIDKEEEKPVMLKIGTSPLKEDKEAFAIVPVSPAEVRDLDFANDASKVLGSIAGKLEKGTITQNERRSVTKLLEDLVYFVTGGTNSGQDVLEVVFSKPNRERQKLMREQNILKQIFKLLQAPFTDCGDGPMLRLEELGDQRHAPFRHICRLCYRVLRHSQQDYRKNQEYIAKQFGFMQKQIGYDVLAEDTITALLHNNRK
Description: [3H]IP3 equilibrium-competition binding to NT L60E. Conditions: fragment NT L60E.
Excerpt: as §2, §3, §1

For test [6], the target named is T6, NT of rat IP3R1 with Y66E mutation (Rattus norvegicus, UniProt P29994, DEL318-332/Y66E).
T6 construct: The NT (residues 1–604) and IBC (residues 224–604) of rat IP3R1; His6 (N, cleaved yes); made in house; host or cells: Escherichia coli BL21(DE3)
T6 sequence (P29994 1-589 isoform P29994-2 Y66E limits assumed): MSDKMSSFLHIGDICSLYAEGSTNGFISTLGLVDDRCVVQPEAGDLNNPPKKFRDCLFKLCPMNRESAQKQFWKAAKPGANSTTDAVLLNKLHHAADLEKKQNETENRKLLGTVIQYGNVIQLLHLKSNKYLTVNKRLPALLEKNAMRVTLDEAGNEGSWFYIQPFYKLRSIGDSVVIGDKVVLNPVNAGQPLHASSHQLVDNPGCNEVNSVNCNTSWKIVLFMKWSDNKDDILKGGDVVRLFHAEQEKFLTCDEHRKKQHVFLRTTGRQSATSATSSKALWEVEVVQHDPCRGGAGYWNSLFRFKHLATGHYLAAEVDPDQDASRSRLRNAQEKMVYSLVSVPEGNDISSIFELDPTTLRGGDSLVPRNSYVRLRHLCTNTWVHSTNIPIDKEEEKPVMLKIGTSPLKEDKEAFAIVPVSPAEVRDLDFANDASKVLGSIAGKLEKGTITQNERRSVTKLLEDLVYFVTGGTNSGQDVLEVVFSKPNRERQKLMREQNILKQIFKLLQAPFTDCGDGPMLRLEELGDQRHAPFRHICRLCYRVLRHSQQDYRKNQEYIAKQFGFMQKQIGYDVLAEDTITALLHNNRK
Description: [3H]IP3 equilibrium-competition binding to NT Y66E. Conditions: fragment NT Y66E.
Excerpt: as §2, §3, §1

Test [7] deals with T7, NT of rat IP3R1 with F53E mutation (Rattus norvegicus, UniProt P29994, DEL318-332/F53E).
T7 construct: The NT (residues 1–604) and IBC (residues 224–604) of rat IP3R1; His6 (N, cleaved yes); made in house; host or cells: Escherichia coli BL21(DE3)
T7 sequence (P29994 1-589 isoform P29994-2 F53E limits assumed): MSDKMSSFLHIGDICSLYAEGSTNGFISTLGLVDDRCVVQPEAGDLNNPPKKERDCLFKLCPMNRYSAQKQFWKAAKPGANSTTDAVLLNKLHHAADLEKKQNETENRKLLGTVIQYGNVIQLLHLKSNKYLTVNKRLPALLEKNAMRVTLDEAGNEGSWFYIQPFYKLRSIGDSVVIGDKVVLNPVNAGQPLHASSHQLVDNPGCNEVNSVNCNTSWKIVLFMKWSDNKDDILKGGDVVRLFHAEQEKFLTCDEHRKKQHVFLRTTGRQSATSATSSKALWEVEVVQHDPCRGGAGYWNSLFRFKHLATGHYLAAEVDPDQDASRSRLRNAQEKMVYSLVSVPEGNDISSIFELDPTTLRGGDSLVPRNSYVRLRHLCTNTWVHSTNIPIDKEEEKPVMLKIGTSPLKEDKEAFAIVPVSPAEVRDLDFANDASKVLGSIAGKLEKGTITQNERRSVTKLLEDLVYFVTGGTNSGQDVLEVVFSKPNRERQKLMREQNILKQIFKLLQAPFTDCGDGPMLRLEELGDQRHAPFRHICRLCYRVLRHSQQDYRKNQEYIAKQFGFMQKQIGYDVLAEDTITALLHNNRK
Description: [3H]IP3 equilibrium-competition binding to NT F53E. Conditions: fragment NT F53E.
Excerpt: as §2, §3, §1

Regarding “Ac-KKFRDALFKLAPMNRY-NH2 [1-8-14 peptide, Ac-KKFRDALFKLAPMNRY-NH2]”, the “effect on specific binding of [3H]IP3 to full-length IP3R1” value at full-length IP3R1 is recorded as “increased”. Moreover, the “effect on IP3 binding to the IBC” value in test [1] (3 mM peptide, [3H]IP3 1.5 nM) is given as “unaffected”. Further, the concentration for a half-maximal effect (EC50) in test [2] (CLM with 220 nM free Ca2+, read-out: EC50 for stimulating [3H]IP3 binding to the NT) came to 615 µM. Further, the “dependence of inhibition on cytosolic free Ca2+ concentration” value at rat IP3R1 [3] (1 mM peptide, maximally effective IP3) is “enhanced at elevated cytosolic Ca^2+ concentrations”. The “reversibility of inhibition of IP3-evoked Ca2+ release” value on rat IP3R1 [3] (3 mM peptide 10–20 min, washed, rechallenged) is on record as “fully reversible”. Also, the “effect on the sensitivity (EC50) to IP3” value at rat IP3R1 [3] (3 mM peptide, pre-incubation 2.5 min) is “without affecting”. Further, at rat IP3R1 [3] (3 mM peptide, similar for all IP3 concentrations, read-out: percentage inhibition of IP3-evoked Ca2+ release), the inhibition at 3000 µM is approximately 75%. In addition, at rat IP3R1 [3] (maximally effective concentration of the peptide, read-out: reduction of the maximal response to IP3), the Emax amounted to 77 ± 7%. Also, on rat IP3R1 [3] (permeabilized DT40-IP3R1 cells), the “effect on Ca2+ uptake” value is “without affecting”. Also, the IC50 on rat IP3R1 [3] (permeabilized DT40-IP3R1 cells pre-incubated 10–20 min with peptide, IP3 10 μM, 220 nM free Ca2+, read-out: IC50 for inhibition of IP3-evoked Ca2+ release) came to 767 µM. Further, at rat IP3R1 [4] (3 mM peptide, +40 mV), the “decrease in overall channel activity (NPo)” value is on record as ~ 10 fold and the “decrease in the mean channel open time (τo)” value worked out at 50%. Moreover, the “single-channel conductance (γCs)” value on rat IP3R1 [4] (peptide-treated IP3Rs (3 mM), n=3, control 214±6 pS) worked out at 209±6 pS.

Take heparin: the “Kd, ng/ml (heparin)” value in test [1] (fragment IBC) amounted to 117 ng/mL; in test [2] (fragment NT) it was 239 ng/mL; in test [5], 200 ng/mL; in test [6], 171 ng/mL; in test [7] it was 120 ng/mL. In addition, the “Affinity relative to NT (heparin), Kd^NT/Kd^mutant” value was 2 fold and 2.0 fold in test [1] (fragment IBC (SD removed)); 1 fold in test [2] (fragment NT); 1.2 fold in test [5]; 1.4 fold in test [6]; 2 fold in test [7]. Moreover, the “pKd, /g/ml heparin” value in test [1] (fragment IBC, mean±S.E.M., n≥3) is listed as 6.93±0.04 /g/ml; in test [2] (fragment NT, mean±S.E.M., n≥3) it was 6.62±0.06 /g/ml; in test [5] (mean±S.E.M., n≥3), 6.70±0.04 /g/ml; in test [6] (mean±S.E.M., n≥3), 6.77±0.03 /g/ml; in test [7] (mean±S.E.M., n≥3), 6.92±0.06 /g/ml.
